# Measured values as given in BindingDB's records for patent US11013745 (Shanghai Institute of Material Medica, Chinese Academy of …, 2021).
# Target: T1, Histone-binding protein RBBP4/Histone-lysine N-methyltransferase EZH2/Polycomb protein EED [40-441]/Polycomb protein SUZ12 (Homo sapiens, UniProt O75530+Q09028+Q15022+Q15910)
# T1 construct: 40-441
# Assay: TR-FRET Assay
# Protocol: The TR-FRET method was used to measure the PRC2 enzyme activity. First, the enzyme was mixed with compounds at different concentrations and incubated for 30 min at room temperature. The biotin-labeled histone H3 peptide substrate and the cofactor S-adenosylmethionine (SAM) were added to initiate the enzymatic reaction. After reaction was performed at room temperature for 4 hour, Acceptor and Donor were added and incubated for half an hour. The multifunctional microplate reader EnVision (Perkin Elmer Inc.) was used to detect the fluorescence signal.
# T1 sequence (Q15910 whole entry): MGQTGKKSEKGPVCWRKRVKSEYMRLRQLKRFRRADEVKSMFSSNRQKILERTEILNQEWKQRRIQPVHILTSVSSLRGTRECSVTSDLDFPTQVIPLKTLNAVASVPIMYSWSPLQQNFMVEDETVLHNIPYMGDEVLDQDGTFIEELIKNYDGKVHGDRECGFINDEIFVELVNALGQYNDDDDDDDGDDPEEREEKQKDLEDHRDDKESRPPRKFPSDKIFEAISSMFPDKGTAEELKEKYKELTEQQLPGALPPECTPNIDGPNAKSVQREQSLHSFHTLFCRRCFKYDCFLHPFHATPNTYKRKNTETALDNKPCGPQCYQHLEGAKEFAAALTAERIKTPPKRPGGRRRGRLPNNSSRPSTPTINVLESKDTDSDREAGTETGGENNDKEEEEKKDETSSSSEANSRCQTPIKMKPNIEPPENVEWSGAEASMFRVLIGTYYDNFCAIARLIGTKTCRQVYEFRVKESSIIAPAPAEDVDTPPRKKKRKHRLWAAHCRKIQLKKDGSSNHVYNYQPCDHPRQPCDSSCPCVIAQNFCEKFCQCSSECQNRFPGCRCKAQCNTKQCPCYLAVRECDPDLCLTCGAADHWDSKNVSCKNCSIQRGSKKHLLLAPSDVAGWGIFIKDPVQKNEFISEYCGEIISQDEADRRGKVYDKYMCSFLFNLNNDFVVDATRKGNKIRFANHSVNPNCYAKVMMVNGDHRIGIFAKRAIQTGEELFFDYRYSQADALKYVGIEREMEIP
# T1 sequence (Q15022 whole entry): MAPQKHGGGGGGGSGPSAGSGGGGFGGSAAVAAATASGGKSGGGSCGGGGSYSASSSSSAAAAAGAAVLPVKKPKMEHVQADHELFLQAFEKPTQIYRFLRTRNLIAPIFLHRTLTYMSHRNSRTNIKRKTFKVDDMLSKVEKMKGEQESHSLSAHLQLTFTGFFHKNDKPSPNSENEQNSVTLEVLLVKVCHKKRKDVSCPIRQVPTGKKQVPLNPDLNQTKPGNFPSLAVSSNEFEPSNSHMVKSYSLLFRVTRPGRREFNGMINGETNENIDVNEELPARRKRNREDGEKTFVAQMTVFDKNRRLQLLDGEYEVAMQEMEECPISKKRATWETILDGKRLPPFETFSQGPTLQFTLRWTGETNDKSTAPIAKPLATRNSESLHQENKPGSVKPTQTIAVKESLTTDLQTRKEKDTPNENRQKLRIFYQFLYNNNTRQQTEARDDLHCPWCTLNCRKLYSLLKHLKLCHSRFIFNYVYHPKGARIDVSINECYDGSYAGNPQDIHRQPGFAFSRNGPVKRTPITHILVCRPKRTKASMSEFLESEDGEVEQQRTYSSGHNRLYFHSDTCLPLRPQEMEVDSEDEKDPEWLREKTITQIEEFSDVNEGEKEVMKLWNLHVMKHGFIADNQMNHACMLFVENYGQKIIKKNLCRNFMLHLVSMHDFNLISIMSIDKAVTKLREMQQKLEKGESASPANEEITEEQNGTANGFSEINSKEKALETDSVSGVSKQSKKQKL
# T1 sequence (Q09028 whole entry): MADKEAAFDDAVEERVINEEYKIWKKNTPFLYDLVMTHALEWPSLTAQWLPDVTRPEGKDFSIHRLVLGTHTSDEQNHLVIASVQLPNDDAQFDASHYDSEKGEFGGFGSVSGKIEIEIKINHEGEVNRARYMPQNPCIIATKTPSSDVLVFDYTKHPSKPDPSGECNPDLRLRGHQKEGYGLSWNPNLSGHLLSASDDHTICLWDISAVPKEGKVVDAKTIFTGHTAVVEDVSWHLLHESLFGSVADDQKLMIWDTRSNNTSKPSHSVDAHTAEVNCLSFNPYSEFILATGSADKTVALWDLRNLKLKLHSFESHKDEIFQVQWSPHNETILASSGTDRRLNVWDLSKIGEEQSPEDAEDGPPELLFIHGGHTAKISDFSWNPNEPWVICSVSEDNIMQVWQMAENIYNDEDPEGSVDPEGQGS
# T1 sequence (O75530 40-441): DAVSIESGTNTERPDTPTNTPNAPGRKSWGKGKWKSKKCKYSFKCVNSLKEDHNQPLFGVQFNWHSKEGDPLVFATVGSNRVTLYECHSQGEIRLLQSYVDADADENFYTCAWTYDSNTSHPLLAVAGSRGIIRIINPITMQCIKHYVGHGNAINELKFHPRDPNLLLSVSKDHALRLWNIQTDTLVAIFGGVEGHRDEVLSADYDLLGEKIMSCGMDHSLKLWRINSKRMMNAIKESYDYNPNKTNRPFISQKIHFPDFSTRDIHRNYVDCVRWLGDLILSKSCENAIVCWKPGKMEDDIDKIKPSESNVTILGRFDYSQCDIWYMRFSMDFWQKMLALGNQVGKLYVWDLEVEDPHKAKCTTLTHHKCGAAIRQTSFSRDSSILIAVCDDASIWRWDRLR
row,IC50 [nM],SMILES
1,92,"O=C(Nc1ccc(Cl)cc1)N1CC=C(c2cnc(NCc3ccco3)n3cnnc23)CC1 [US11013745, Compound E-Y27]"
2,58.5,"O=C(Nc1ccc(Cl)cc1)N1CC=C(c2cnc(NCc3c(F)ccc4c3CCO4)n3cnnc23)CC1 [US11013745, Compound E-Y38]"
